Melting point data for 91 compounds are collected here from a melting point compilation (Tetko et al.; mined from patent text by program, amines drawn as free bases though some values may be those of a salt).

One may read the melting point as the temperature of the solid-liquid transition.

As to `c1cn(-c2ccnc(-n3ccnc3)n2)cn1`, the melting point lay in the range of 131 to 132 °C.

`Cc1cn(C(=O)OC(C)(C)C)c2ccc(Br)cc12` displayed a melting point of 92 °C.

In the case of `CCN1c2ncccc2C(=O)N(C)c2ccc(-c3c[nH]nc3C)nc21`, the melting point was 113 to 115 °C.

With `CC1(C)C=Cc2cc(C(=O)NCCO)ccc2O1`, the melting point is 60 to 70 °C.

`C=Cc1ccc2c(NCc3ccc(NC(=O)C4CCN(Cc5ccccc5)CC4)cc3)nc(N(C)C)nc2c1` registered a melting point of 180 °C.

Take `O=c1ccc2ccc(OCCCCCc3ccccc3)cc2o1`: the melting point was determined as 103 °C.

Compound `COc1ccc(-c2oc3ccc(CC(=O)N4CCN(c5ccccc5)CC4)cc3c2SC)cc1OC` had a melting point of 160 °C.

`Cc1noc(NS(=O)(=O)c2cccc([N+](=O)[O-])c2)c1Br` yielded a melting point of 151 to 153 °C.

`C#CCOC(=O)c1ccc(O)cc1O` came in with a melting point of 104 to 106 °C.

Compound `CCOC1(OC)CC(C)=C(CCc2cccc(OC)c2)C=C1OC` (stereo unspecified) returned a melting point of 178 to 180 °C.

Take `O=C(CCCl)c1ccc2c(c1)Cc1cc(C(=O)CCCl)ccc1S2`: the melting point lay within 105 to 107 °C.

Take `Oc1ccccc1Oc1ncc(Cl)cn1`: the melting point was in the range of 131 to 139 °C.

Compound `COc1ccc(C(=O)Nc2ccc(F)cc2)cc1NC(=S)Nc1cc(Cl)cc(Cl)c1` returned a melting point of 175 to 178 °C.

`CCOC(=O)c1c(CCl)nc2cc(OC)c(OC)cc2c1-c1ccc(Cl)c(Cl)c1` yielded a melting point of 159 to 160 °C.

As to `CCn1cc(Br)nc(S(=O)(=O)Cc2ccc(Cl)cc2)c1=O`, the melting point was 145 to 147 °C.

With `COC1OC2OC3(C)CCC4C(C)CCC(C1C)C24OO3` (stereo unspecified), the melting point was in the range of 73 to 74.5 °C.

Regarding `CCOC(=O)C1=C(CSCCNC=O)NC(C)=C(C(C)=O)C1c1cccc([N+](=O)[O-])c1` (stereo unspecified), the melting point lay in the range of 140 to 142 °C.

For the compound `CCN1c2ncc(COc3ccccc3O)cc2C(=O)N(C)c2ccc(Cl)nc21`, the melting point was 172 to 173 °C.

`CCNC(=O)n1cc(F)c(NC(=O)NCc2ccccc2OC)nc1=O` displayed a melting point of 248 to 250 °C.

On to `Nc1cccc(-c2ccc(CCNCCCCCc3ccccc3)cc2)n1`, for which the melting point was 60 to 70 °C.

On to `CC1SC(=O)NN=C1c1ccc2c(c1)C(=Cc1cccnc1)C(=O)N2` (stereo unspecified), for which the melting point was found to be 285 °C.

Regarding `Clc1ccc(CCC(Cn2ccnc2)Sc2ccccc2Cl)s1` (stereo unspecified), the melting point is 121 to 122 °C.

As to `Fc1ccc(/C=C/c2nc(COc3cccc(CCCn4ccnn4)c3)co2)cc1`, the melting point was in the range of 105 to 106 °C.

Compound `O=[N+]([O-])C1(CNC(CO)(CO)CO)CCCCC1` returned a melting point of 110 to 113 °C.

For `Cc1nc(-c2cnc3[nH]cc(C(=O)N[C@@H](C(=O)N4CC(C#N)C4)C4CC4)c3n2)cn1CC(F)(F)F`, the melting point lay within 255 to 256 °C.

For the compound `CCCC1=C(C#N)C(c2cccc(N3CCOCC3)c2)c2c[nH]nc2N1` (stereo unspecified), the melting point was 196 to 200 °C.

`CCCCc1nc2c(c(=O)[nH]1)CN(C(=O)C(C)(C)O)CC2` registered a melting point of 159 to 161 °C.

`CC(Br)=C(Br)CC(O)(Cn1cncn1)C1(Cl)CC1` (stereo unspecified) came in with a melting point of 55 to 56 °C.

As for `CCCCCCc1cc2c(s1)NC(=O)CN=C2c1ccc(OC)cc1`, the melting point fell in the range of 123 to 125 °C.

As to `CCc1c(CCNC(=O)CCCCC(=O)NC(C)(C)Cc2ccc3c(c2CC)OCO3)ccc(OC)c1OC`, the melting point fell in the range of 103 to 104 °C.

`COc1ccc(OCC2(CO)CC2)cc1`: the melting point was in the range of 80 to 81 °C.

In the case of `Cn1c(=O)n(C(N)=O)c2ccccc21`, the melting point is > 250 °C.

In turn, `ClC1=NC(Cl)(Cl)N=C1Cl` came in with a melting point of 85 to 87 °C.

In turn, `CSc1nc(N)nc(N)c1-c1ccc(Cl)cc1Cl` gave a melting point of 191 to 192 °C.

`N#Cc1cc(NC(=O)c2ccn(-c3ccc(F)cc3)c2)ccc1N1CCC(N2CCOCC2)CC1`: the melting point is 182 to 183 °C.

`CNS(=O)(=O)c1cscc1CCl`: the melting point lay within 75 to 76 °C.

Take `COc1cc2c(cc1CCNC(=O)c1cc(OC)c(OC)c(OC)c1)CCC2`: the melting point was in the range of 144 to 145 °C.

The compound `CC(C)c1cccc(C(C)C)c1NC(=O)CNC(c1ccccc1)c1ccc([N+](=O)[O-])cc1` (stereo unspecified) returned a melting point of 177 to 179 °C.

`CCOC(=O)c1cnc2[nH]c(-c3cc(OCc4ccccc4)ccc3OC(C)C)nc2c1`: the melting point was 138 to 140 °C.

Turning to `Cc1[nH]nc(Oc2ccc(C(F)(F)F)cc2[N+](=O)[O-])c1C`, the melting point was 92 to 95 °C.

With `COc1cc(CO)cc2c1OCO2`, the melting point was in the range of 66 to 67 °C.

As to `CCOC(=O)c1cc(NCc2ccccc2)c(OCC(F)(F)F)c(S(N)(=O)=O)c1`, the melting point fell in the range of 163 to 165 °C.

As to `CNc1nc(-c2cccc(NC(=O)c3ccc(Cl)nc3)c2)c2cc(OC)c(OC)cc2n1`, the melting point was in the range of 157 to 159 °C.

In the case of `CCCC[C@H](NC(=O)CC[C@H](C)CNC(=O)COc1ccccc1)C(=O)CS(=O)(=O)Cc1ccco1`, the melting point fell in the range of 120 to 121 °C.

Regarding `CN1CCN(C(=O)C(C)(C)OCc2nn(Cc3ccccc3)c3ccccc23)CC1`, the melting point fell in the range of 97 to 98 °C.

Turning to `Nc1nc(Nc2ccccc2)sc1C(=O)c1ccsc1`, the melting point fell in the range of 171 to 172 °C.

The compound `CCOC(=O)C(C)(Cc1ccc(O)c(OC)c1)NN` (stereo unspecified) registered a melting point of 114 to 116 °C.

`CC(=O)c1ccc(NS(C)(=O)=O)c(C(=O)Nc2ccc(F)cc2F)c1` displayed a melting point of 153 to 155 °C.

Turning to `O=C1NC(O)c2c1c1c3ccccc3[nH]c1c1[nH]c3ccccc3c21` (stereo unspecified), the melting point was > 300 °C.

Compound `COc1ccc(N2C(=O)C(=C3CCCN3C)c3ccccc32)cc1F` gave a melting point of 68 to 71 °C.

Consider `COc1ccc2[nH]c3c(c2c1)CCS(=O)(=O)CCC3`, for which the melting point is 231 to 233 °C.

The compound `CCOC(=O)c1cnc2c(c1)N(Cc1cc(F)ccc1F)CCN2` gave a melting point of 124 to 125 °C.

On to `CCCc1c(OCCCCCc2c(Cl)ccc(OC)c2OC)ccc(C(=O)O)c1O`, for which the melting point was in the range of 140 to 142 °C.

`COC(=O)CCCc1cc2nc(Cl)ccc2n1S(=O)(=O)c1ccc(Br)cc1`: the melting point stood at 102 °C.

For the compound `COC(=O)c1ccc(C(=O)NS(=O)(=O)c2ccc(OC(F)(F)F)cc2)cn1`, the melting point was 221 to 223 °C.

For `CC(Oc1ncn(-c2cccc(F)c2)n1)C(N)=O` (stereo unspecified), the melting point was in the range of 156 to 158 °C.

As to `O=Cc1ccc(CBr)c2ccccc12`, the melting point fell in the range of 115 to 116 °C.

As for `CCOC(=O)Cc1ccc(NC(=O)C(COS(C)(=O)=O)NS(=O)(=O)c2ccc(I)cc2)cc1` (racemic), the melting point was 160 to 162 °C.

`O=C(NCc1ccc(Cl)cc1)c1cn(C2CC2)c2oc(CCl)cc2c1=O` came in with a melting point of 174 to 176 °C.

Take `COC(=O)c1cccc(COc2cc(Cl)cnc2N)c1`: the melting point lay within 148 to 150 °C.

In turn, `COc1ccc(C2=NN(CCCO)C(=O)[C@H]3CCCC[C@@H]23)cc1OC` (relative stereo) had a melting point of 94 to 97 °C.

`Cc1ccc(C2=NC(C)(C(C)C)C(=O)N2)cc1` (stereo unspecified) registered a melting point of 151 to 154 °C.

With `COC(=O)c1cc(CCl)ccc1OCc1nc(-c2ccco2)oc1C`, the melting point was 107 to 108 °C.

Take `CC1(C)Oc2ccsc2C(NC(=O)c2ccc(C#N)cc2)C1O` (stereo unspecified): the melting point is 177 to 178 °C.

The compound `N#Cc1ccc2c(c1)C(=O)N1CCC[C@@H]1CO2` came in with a melting point of 164 to 165 °C.

`Nc1ccc2c(c1)Sc1ccc(N)cc1S2` gave a melting point of 185 to 186 °C.

With `C=C(C)Cn1c(=O)n(C)c(=O)c2c(SCCCO)n(Cc3cccc4ccccc34)nc21`, the melting point lay within 138 to 139 °C.

Take `COc1ccc2c(c1)CCC1C2CCC2(C)C1CCC2N(C)CCOCCO` (stereo unspecified): the melting point amounted to 102 °C.

With `CC(C)CSc1ccc(-c2nc(=O)c3ccccc3s2)cn1`, the melting point is 92.8 to 93.1 °C.

The compound `CCC1(CCCN2CCN(c3cccc(Cl)c3)CC2)C(=O)Nc2ccccc21` (stereo unspecified) showed a melting point of 119 to 120 °C.

The compound `CCCn1cc(C(=O)NCc2ccc(Cl)cc2)c(=O)c2cc(CCl)oc21` gave a melting point of 160 to 162 °C.

With `O=c1cc(C(F)(F)F)[nH]c(=O)n1-c1cc([N+](=O)[O-])c(Cl)cc1F`, the melting point turned out to be 204 °C.

`O=c1c(-c2ccc(Cl)cc2)c[nH]n1-c1ncccn1`: the melting point was 190 to 191 °C.

In the case of `O=[N+]([O-])C=C1NCCCCN1`, the melting point was 152 to 154 °C.

The compound `CCOC(=O)/C=C(C)/C(F)=C/C=C(\C)C=O` yielded a melting point of 70 to 74 °C.

The compound `COc1ccccc1Cc1n[nH]c2c1c(=O)n(-c1cccc(OC(F)(F)F)c1)c1ncccc21` had a melting point of 243 to 245 °C.

On to `CON=Cc1ccc(-c2cc(F)cc(F)c2NC(=O)c2c(C)nn(C)c2F)cc1`, for which the melting point was in the range of 164 to 167 °C.

On to `C#CCc1c(C)nc2c(OCc3c(C)cccc3NC(=S)NC(=O)c3ccccc3)cccn12`, for which the melting point is 159 to 160 °C.

As for `CCOCc1nc2c(N)nc(C)c(C)c2n1CCCCNS(C)(=O)=O`, the melting point was in the range of 165 to 167 °C.

In the case of `O=S(=O)(CCCl)CCC(F)(F)C(F)(F)C(F)(F)C(F)(F)C(F)(F)C(F)(F)F`, the melting point was in the range of 104 to 106 °C.

`COC(=O)c1ccc(-n2cccn2)cc1`: the melting point was 107 to 109 °C.

As to `COC(C)=CC(=O)NC1(C)CCCCC1`, the melting point came to 105 °C.

The compound `CCOC(=O)C1=C(C)OC(=O)C1=C(C)O` gave a melting point of 106 to 108 °C.

Regarding `C#CCN(Cc1cc2c(=O)[nH]c(C)nc2cc1Br)c1ccc(C(=O)NC(CO)c2cccc([N+](=O)[O-])c2)cc1` (stereo unspecified), the melting point is 221 to 232 °C.

`CCc1nnc2c(N(C(C)=O)C(C)=O)nc3ccccc3n12` returned a melting point of 157 to 159 °C.

On to `CCCCCCOC(Cc1ccc(OCCc2nc(-c3ccccc3)oc2C)c2ccsc12)C(=O)O` (stereo unspecified), for which the melting point fell in the range of 79 to 82 °C.

Regarding `CC1(C)SC(C)(C)C1C(=O)O`, the melting point is 149 to 151 °C.

`O=C1CCC(n2cnc(-c3ccc(F)cc3)c2-c2ccnc(OCCO)n2)CC1` yielded a melting point of 203 to 205 °C.

As to `c1ccc(OCC2CCN(CCCOc3cccc4[nH]ccc34)CC2)cc1`, the melting point was 118 to 119 °C.

`COC(=O)c1ccc(C#CCc2cccc3c2SCCC3(C)C)cc1` returned a melting point of 92 °C.

Consider `CC(C)(O)[C@@H](N)c1cccc2ccccc12`, for which the melting point was 86 to 87 °C.
